According to patent US12097241B2, “Methods of treating kidney failure, and/or improving or stablizing renal function using modified relaxin polypeptides” (BRISTOL-MYERS SQUIBB COMPANY, priority 2017, dated 2024):
pEC50: −log10 of the molar value.

Target: T1, human RXFP1 receptor (Homo sapiens, UniProt Q9HBX9)
T1 construct: expressed in transfected cells
T1 sequence (Q9HBX9 1-757): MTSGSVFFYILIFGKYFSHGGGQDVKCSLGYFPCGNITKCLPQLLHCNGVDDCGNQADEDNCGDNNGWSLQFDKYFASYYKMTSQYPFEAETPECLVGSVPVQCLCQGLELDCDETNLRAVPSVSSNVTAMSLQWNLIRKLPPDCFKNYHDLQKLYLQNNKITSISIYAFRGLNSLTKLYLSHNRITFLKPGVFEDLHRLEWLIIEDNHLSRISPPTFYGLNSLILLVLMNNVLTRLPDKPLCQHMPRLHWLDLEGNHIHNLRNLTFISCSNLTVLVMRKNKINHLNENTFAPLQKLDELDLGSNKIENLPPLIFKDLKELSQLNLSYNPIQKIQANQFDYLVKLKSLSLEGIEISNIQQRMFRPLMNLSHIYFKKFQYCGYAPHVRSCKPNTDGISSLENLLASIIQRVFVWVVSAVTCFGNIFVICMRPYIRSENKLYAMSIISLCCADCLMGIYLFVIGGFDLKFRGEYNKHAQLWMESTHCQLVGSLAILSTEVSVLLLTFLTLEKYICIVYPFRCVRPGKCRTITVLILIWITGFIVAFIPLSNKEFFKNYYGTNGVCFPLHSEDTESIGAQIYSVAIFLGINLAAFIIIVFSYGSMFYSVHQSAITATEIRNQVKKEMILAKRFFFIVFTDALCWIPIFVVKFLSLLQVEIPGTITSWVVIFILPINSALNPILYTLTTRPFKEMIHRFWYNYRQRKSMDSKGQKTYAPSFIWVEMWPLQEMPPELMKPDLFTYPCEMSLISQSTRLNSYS
Assay: Intracellular cAMP accumulation assay
Format: cell-based

Structure (SMILES)	pEC50
CC[C@H](C)[C@@H]1NC(=O)[C@H](C)NC(=O)[C@H]([C@@H](C)CC)NC(=O)[C@H](CCC(N)=O)NC(=O)[C@H](C)NC(=O)[C@H](CCCNC(=N)N)NC(=O)[C@H](C(C)C)NC(=O)[C@H](CC(C)C)NC(=O)[C@H](CCC(=O)O)NC(=O)[C@H](CCCNC(=N)N)NC(=O)CNC(=O)[C@@H](NC(=O)[C@H](CC(C)C)NC(=O)[C@H](CCCCN)NC(=O)[C@@H](NC(=O)[C@@H](NC(=O)[C@H](CCC(=O)O)NC(=O)[C@H](CCC(=O)O)NC(=O)[C@H](CCSC)NC(=O)[C@H](Cc2c[nH]c3ccccc23)NC(=O)[C@H](CO)NC(=O)[C@H](C)N)C(C)C)[C@@H](C)CC)CSSC[C@@H]2NC(=O)[C@@H](NC(=O)[C@H](CCCCN)NC(=O)[C@H](CC(N)=O)NC(=O)[C@H](C)NC(=O)[C@H](CC(C)C)NC(=O)[C@H](C)NC(=O)[C@H](CO)NC(=O)[C@H](Cc3ccc(O)cc3)NC(=O)[C@H](CC(C)C)NC(=O)[C@@H](N)Cc3ccc(/C(C)=N/OCCNC(=O)[C@H](CCCCN)NC(=O)CNC(=O)CNC(=O)CNC(=O)[C@H](CO)NC(=O)CC[C@H](NC(=O)CCCCCCCCCCCCCC(=O)O)C(=O)O)cc3)CSSC[C@H](NC(=O)CNC(=O)[C@H](C(C)C)NC(=O)[C@H](Cc3c[nH]cn3)NC2=O)C(=O)N[C@@H]([C@@H](C)O)C(=O)N[C@@H](CCCCN)C(=O)N[C@@H](CCCNC(=N)N)C(=O)N[C@@H](CO)C(=O)N[C@@H](CC(C)C)C(=O)N[C@@H](C)C(=O)N[C@@H](CCCNC(=N)N)C(=O)N[C@@H](Cc2ccccc2)C(=O)N[C@H](C(=O)O)CSSC[C@@H](C(=O)NCC(=O)N[C@@H](CCSC)C(=O)N[C@@H](CO)C(=O)N[C@H](C(=O)N[C@@H](Cc2c[nH]c3ccccc23)C(=O)N[C@@H](CO)C(=O)O)[C@@H](C)O)NC1=O [AQ1-KGGGS-Glu^γ-C14-COOH]	9.47
CC[C@H](C)[C@@H]1NC(=O)[C@H](C)NC(=O)[C@H]([C@@H](C)CC)NC(=O)[C@H](CCC(N)=O)NC(=O)[C@H](C)NC(=O)[C@H](CCCNC(=N)N)NC(=O)[C@H](C(C)C)NC(=O)[C@H](CC(C)C)NC(=O)[C@H](CCC(=O)O)NC(=O)[C@H](CCCNC(=N)N)NC(=O)CNC(=O)[C@@H](NC(=O)[C@H](CC(C)C)NC(=O)[C@H](CCCCN)NC(=O)[C@@H](NC(=O)[C@@H](NC(=O)[C@H](CCC(=O)O)NC(=O)[C@H](CCC(=O)O)NC(=O)[C@H](CCSC)NC(=O)[C@H](Cc2c[nH]c3ccccc23)NC(=O)[C@H](CO)NC(=O)[C@H](C)N)C(C)C)[C@@H](C)CC)CSSC[C@@H]2NC(=O)[C@@H](NC(=O)[C@H](CCCCN)NC(=O)[C@H](CC(N)=O)NC(=O)[C@H](C)NC(=O)[C@H](CC(C)C)NC(=O)[C@H](C)NC(=O)[C@H](CO)NC(=O)[C@H](Cc3ccc(O)cc3)NC(=O)[C@H](CC(C)C)NC(=O)[C@@H](N)Cc3ccc(/C(C)=N/OCCNC(=O)[C@H](CCCCN)NC(=O)CNC(=O)[C@@H]4CCCN4C(=O)CC[C@H](NC(=O)CCCCCCCCCCCCCC(=O)O)C(=O)O)cc3)CSSC[C@H](NC(=O)CNC(=O)[C@H](C(C)C)NC(=O)[C@H](Cc3c[nH]cn3)NC2=O)C(=O)N[C@@H]([C@@H](C)O)C(=O)N[C@@H](CCCCN)C(=O)N[C@@H](CCCNC(=N)N)C(=O)N[C@@H](CO)C(=O)N[C@@H](CC(C)C)C(=O)N[C@@H](C)C(=O)N[C@@H](CCCNC(=N)N)C(=O)N[C@@H](Cc2ccccc2)C(=O)N[C@H](C(=O)O)CSSC[C@@H](C(=O)NCC(=O)N[C@@H](CCSC)C(=O)N[C@@H](CO)C(=O)N[C@H](C(=O)N[C@@H](Cc2c[nH]c3ccccc23)C(=O)N[C@@H](CO)C(=O)O)[C@@H](C)O)NC1=O [AQ1-KGP-Glu^γ-C14-COOH]	9.57
